Consider 25 compounds from patent publication US9150566B2, “2-(1,2,3-triazol-2-yl)benzamide and 3-(1,2,3-triazol-2-YL)picolinamide derivatives as orexin receptor antagonists” (ACTELION PHARMACEUTICALS LTD., priority 2011, dated 2015).

Usually IC50 stands for the concentration that gives 50% inhibition.

Each structure is given as a SMILES string. Read-outs that look alike come from different tables or passages of the source.

In one series the target is human orexin-2 receptor (Homo sapiens (Human), UniProt O43614). Nature of the series: In vitro intracellular calcium measurements (FLIPR), antagonistic activity on orexin-2 receptor. To be noted: read-out: IC50 OX2. The class given is cell-based. An outline of the steps: (§1)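 CHO cells expressing human orexin-1 or orexin-2 receptor were seeded overnight, preincubated with antagonist for 120 min, then stimulated with agonist in a FLIPR Tetra.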

A further series addresses CYP3A4 (Homo sapiens (Human), UniProt P08684). The series can be described thus: CYP3A4 inhibition assay (human liver microsomes, testosterone 6β-hydroxylation). The following applies: read-out: CYP3A4 IC50, 40 μM testosterone.
The next series deals with human orexin-1 receptor (Homo sapiens (Human), UniProt O43613). The series can be described thus: In vitro intracellular calcium measurements (FLIPR), antagonistic activity on orexin-1 receptor. The following applies: read-out: IC50 OX1. The class given is cell-based. The gist of the method: as §1
Background: Calcium flux is commonly read through the fluorescence of an indicator in the cells.

Where [1] appears, read: CHO cells expressing human orexin-2 receptor, FLIPR, 3 nM orexin-A agonist, 120 min antagonist incubation, geometric mean if determined several times.
Setting [2] is: CHO cells expressing human orexin-1 receptor, FLIPR, 3 nM orexin-A agonist, 120 min antagonist incubation, geometric mean if determined several times.

Chain of human orexin-2 receptor (O43614 whole entry): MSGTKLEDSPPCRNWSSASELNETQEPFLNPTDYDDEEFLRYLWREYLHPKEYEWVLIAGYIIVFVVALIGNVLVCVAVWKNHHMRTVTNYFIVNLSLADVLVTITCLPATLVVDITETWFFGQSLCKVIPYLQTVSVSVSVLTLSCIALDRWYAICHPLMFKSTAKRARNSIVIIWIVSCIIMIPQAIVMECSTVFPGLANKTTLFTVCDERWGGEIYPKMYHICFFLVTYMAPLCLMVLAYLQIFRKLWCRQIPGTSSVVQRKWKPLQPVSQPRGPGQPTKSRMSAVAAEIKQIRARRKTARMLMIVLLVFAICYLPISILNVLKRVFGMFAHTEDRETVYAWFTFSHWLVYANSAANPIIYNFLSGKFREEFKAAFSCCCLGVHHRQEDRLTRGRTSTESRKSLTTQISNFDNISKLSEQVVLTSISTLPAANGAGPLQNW
Chain of human orexin-1 receptor (O43613 whole entry): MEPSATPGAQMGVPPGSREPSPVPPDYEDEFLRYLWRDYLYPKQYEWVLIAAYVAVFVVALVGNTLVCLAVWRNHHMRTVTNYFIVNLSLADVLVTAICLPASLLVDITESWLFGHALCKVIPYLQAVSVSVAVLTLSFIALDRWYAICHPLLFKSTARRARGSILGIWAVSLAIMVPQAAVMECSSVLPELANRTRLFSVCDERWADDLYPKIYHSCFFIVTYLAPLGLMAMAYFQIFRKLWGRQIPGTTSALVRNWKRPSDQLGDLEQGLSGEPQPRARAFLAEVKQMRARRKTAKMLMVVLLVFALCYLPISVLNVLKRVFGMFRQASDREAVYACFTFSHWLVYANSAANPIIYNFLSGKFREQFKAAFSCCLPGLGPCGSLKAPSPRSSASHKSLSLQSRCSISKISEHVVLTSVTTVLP
Chain of CYP3A4 (P08684 whole entry): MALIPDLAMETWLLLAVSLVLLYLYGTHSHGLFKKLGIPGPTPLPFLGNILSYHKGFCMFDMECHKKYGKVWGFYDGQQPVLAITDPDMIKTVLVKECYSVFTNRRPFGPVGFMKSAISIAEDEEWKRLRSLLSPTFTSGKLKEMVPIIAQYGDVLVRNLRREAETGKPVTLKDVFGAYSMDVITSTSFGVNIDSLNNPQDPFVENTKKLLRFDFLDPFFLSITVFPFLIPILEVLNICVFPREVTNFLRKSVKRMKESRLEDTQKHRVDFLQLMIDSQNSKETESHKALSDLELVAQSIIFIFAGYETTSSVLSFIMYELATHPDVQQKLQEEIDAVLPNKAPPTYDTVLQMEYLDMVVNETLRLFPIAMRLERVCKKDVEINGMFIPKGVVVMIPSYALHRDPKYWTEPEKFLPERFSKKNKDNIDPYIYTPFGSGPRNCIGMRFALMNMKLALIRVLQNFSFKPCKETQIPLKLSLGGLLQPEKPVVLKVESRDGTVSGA

As for `Cc1cccc(C(=O)N2C[C@@H](C)OC[C@H]2Cc2cc(-n3nccn3)ccc2F)c1-n1nccn1` [Example 118, [(2R,5R)-5-(2-Fluoro-5-[1,2,3]triazol-2-yl-benzyl)-2-methyl-morpholin-4-yl]-(3-methyl-2-[1,2,3]triazol-2-yl-phenyl)-methanone], the IC50 was 728 nM on human orexin-2 receptor (setting [1]), 23000 nM on CYP3A4 and 10 nM on human orexin-1 receptor (setting [2]).
For `COc1ccc(-n2nccn2)c(C(=O)N2CCOC[C@H]2Cc2cc(-n3nccn3)ccc2F)c1F` [Example 133, (2-Fluoro-3-methoxy-6-[1,2,3]triazol-2-yl-phenyl)-[(R)-3-(2-fluoro-5-[1,2,3]triazol-2-yl-benzyl)-morpholin-4-yl]-methanone] the same measures were 2600 nM, 37000 nM and 22 nM.
As to `Cc1ccc(-n2nccn2)c(C(=O)N2CCOC[C@@]2(C)Cc2cccc(-n3nccn3)c2)c1` [Example 102, [(R)-3-Methyl-3-(3-[1,2,3]triazol-2-yl-benzyl)-morpholin-4-yl]-(5-methyl-2-[1,2,3]triazol-2-yl-phenyl)-methanone], the figures for the concentration for half-maximal inhibition (IC50) at human orexin-2 receptor (setting [1]), on CYP3A4 and at human orexin-1 receptor (setting [2]) were 1510 nM, 17000 nM and 25 nM, respectively.
For `COc1ccc(C[C@@H]2COCCN2C(=O)c2ccccc2-n2nccn2)cc1-c1cccnn1` [Example 7, [(R)-3-(4-Methoxy-3-pyridazin-3-yl-benzyl)-morpholin-4-yl]-(2-[1,2,3]triazol-2-yl-phenyl)-methanone] the same measures were 6090 nM, above 50000 nM and 26 nM.
For `Cc1ccc(-n2nccn2)c(C(=O)N2CCOC[C@H]2Cc2cccc(-c3cccnn3)c2)c1` [Example 47, (5-Methyl-2-[1,2,3]triazol-2-yl-phenyl)-[(R)-3-(3-pyridazin-3-yl-benzyl)-morpholin-4-yl]-methanone], in that order: 2380 nM, 6000 nM and 13 nM.
For `Cc1ccc(-n2nccn2)c(C(=O)N2CCOC[C@H]2Cc2cccc(-n3cncn3)c2)c1` [Example 23, (5-Methyl-2-[1,2,3]triazol-2-yl-phenyl)-[(R)-3-(3-[1,2,4]triazol-1-yl-benzyl)-morpholin-4-yl]-methanone], in that order: 4780 nM, 6000 nM and 34 nM.
For `Cc1ccc(-n2nccn2)c(C(=O)N2CCOC[C@H]2Cc2cc(-n3nccn3)ccc2F)c1F` [Example 132, (2-Fluoro-3-methyl-6-[1,2,3]triazol-2-yl-phenyl)-[(R)-3-(2-fluoro-5-[1,2,3]triazol-2-yl-benzyl)-morpholin-4-yl]-methanone], the half-maximal inhibitory concentration (IC50) amounted to 1170 nM on human orexin-2 receptor (setting [1]), 19000 nM on CYP3A4 and 8 nM on human orexin-1 receptor (setting [2]).
For `Cc1ccc(-n2cccn2)cc1C[C@@H]1COCCN1C(=O)c1cccc(C)c1-n1nccn1` [Example 190, [(R)-3-(2-Methyl-5-pyrazol-1-yl-benzyl)-morpholin-4-yl]-(3-methyl-2-[1,2,3]triazol-2-yl-phenyl)-methanone] the same measures were 3770 nM, 26000 nM and 25 nM.
For `Cc1ccc(C(=O)N2C[C@@H](C)OC[C@H]2Cc2cc(-c3ncccn3)ccc2F)c(-n2nccn2)c1` [Example 149, [(2R,5R)-5-(2-Fluoro-5-pyrimidin-2-yl-benzyl)-2-methyl-morpholin-4-yl]-(4-methyl-2-[1,2,3]triazol-2-yl-phenyl)-methanone], in that order: 263 nM, 31000 nM and 4 nM.
For `Cc1ccc(-n2nccn2)cc1C[C@@H]1COCCN1C(=O)c1ccccc1-n1nccn1` [Example 121, [(R)-3-(2-Methyl-5-[1,2,3]triazol-2-yl-benzyl)-morpholin-4-yl]-(2-[1,2,3]triazol-2-yl-phenyl)-methanone] the same measures were 1640 nM, 18000 nM and 26 nM.
Take `O=C(c1cccc(F)c1-n1nccn1)N1CCOC[C@H]1Cc1cccc(-n2nccn2)c1` [Example 54, (3-Fluoro-2-[1,2,3]triazol-2-yl-phenyl)-[(R)-3-(3-[1,2,3]triazol-2-yl-benzyl)-morpholin-4-yl]-methanone]: the results for the concentration for half-maximal inhibition (IC50) on human orexin-2 receptor (setting [1]), on CYP3A4 and on human orexin-1 receptor (setting [2]) were 1820 nM, above 50000 nM and 46 nM, respectively.
For `Cc1ccc(C(=O)N2CCOC[C@H]2Cc2cccc(-c3ncon3)c2)c(-n2nccn2)c1` [Example 81, (4-Methyl-2-[1,2,3]triazol-2-yl-phenyl)-[(R)-3-(3-[1,2,4]oxadiazol-3-yl-benzyl)-morpholin-4-yl]-methanone], in that order: 212 nM, 33000 nM and 2 nM.
With `Cc1ccc(-n2nccn2)c(C(=O)N2CCOC[C@H]2Cc2cc(-n3nccn3)ccc2F)c1` [Example 56, [(R)-3-(2-Fluoro-5-[1,2,3]triazol-2-yl-benzyl)-morpholin-4-yl]-(5-methyl-2-[1,2,3]triazol-2-yl-phenyl)-methanone], the half-maximal inhibitory concentration (IC50) was 837 nM on human orexin-2 receptor (setting [1]), 33000 nM at CYP3A4 and 4 nM at human orexin-1 receptor (setting [2]).
For `Cc1ccc(C(=O)N2C[C@@H](C)OC[C@H]2Cc2cc(-n3nccn3)ccc2F)c(-n2nccn2)c1` [Example 117, [(2R,5R)-5-(2-Fluoro-5-[1,2,3]triazol-2-yl-benzyl)-2-methyl-morpholin-4-yl]-(4-methyl-2-[1,2,3]triazol-2-yl-phenyl)-methanone], in that order: 107 nM, 23000 nM and 5 nM.
For `O=C(c1cccc(Cl)c1-n1nccn1)N1CCOC[C@H]1Cc1cc(-c2ncccn2)ccc1F` [Example 161, (3-Chloro-2-[1,2,3]triazol-2-yl-phenyl)-[(R)-3-(2-fluoro-5-pyrimidin-2-yl-benzyl)-morpholin-4-yl]-methanone] the same measures were 655 nM, 33000 nM and 16 nM.
For `Cc1ccc(C(=O)N2C[C@@H](C)OC[C@H]2Cc2cccc(-n3nccn3)c2)c(-n2nccn2)c1C` [Example 99, (3,4-Dimethyl-2-[1,2,3]triazol-2-yl-phenyl)-[(2R,5R)-2-methyl-5-(3-[1,2,3]triazol-2-yl-benzyl)-morpholin-4-yl]-methanone], in that order: 1220 nM, 9600 nM and 5 nM.
On to `Cc1ccc(C(=O)N2CCOC[C@H]2Cc2ccc(C)c(-n3nccn3)c2)c(-n2nccn2)c1` [Example 67, [(R)-3-(4-Methyl-3-[1,2,3]triazol-2-yl-benzyl)-morpholin-4-yl]-(4-methyl-2-[1,2,3]triazol-2-yl-phenyl)-methanone], for which the 50% inhibitory concentration (IC50) on human orexin-2 receptor is 274 nM; on CYP3A4, 25000 nM; on human orexin-1 receptor, 2 nM.
Consider `Cc1ccc(-n2nccn2)c(C(=O)N2CCOC[C@H]2Cc2ccc(C)c(-n3nccn3)c2)c1` [Example 65, [(R)-3-(4-Methyl-3-[1,2,3]triazol-2-yl-benzyl)-morpholin-4-yl]-(5-methyl-2-[1,2,3]triazol-2-yl-phenyl)-methanone], for which the half-maximal inhibitory concentration (IC50) at human orexin-2 receptor (setting [1]) amounted to 261 nM; at CYP3A4 it was 22000 nM; on human orexin-1 receptor (setting [2]), 2 nM.
For the compound `Cc1ccc(-n2nccn2)c(C(=O)N2CCCC[C@H]2Cc2cccc(-n3nccn3)c2)c1` [Ref. 4], the half-maximal inhibitory concentration (IC50) came to 2 nM on human orexin-2 receptor (setting [1]), 7700 nM on CYP3A4 and 0.3 nM on human orexin-1 receptor (setting [2]).
For `Cc1ccc(-n2nccn2)c(C(=O)N2CCOC[C@H]2Cc2cccc(-n3cccn3)c2)n1` [Example 53, (6-Methyl-3-[1,2,3]triazol-2-yl-pyridin-2-yl)-[(R)-3-(3-pyrazol-1-yl-benzyl)-morpholin-4-yl]-methanone] the same measures were 3400 nM, above 50000 nM and 27 nM.
For `O=C(c1ccccc1-n1nccn1)N1CCOC[C@H]1Cc1cccc(-c2cccnn2)c1` [Example 48, [(R)-3-(3-Pyridazin-3-yl-benzyl)-morpholin-4-yl]-(2-[1,2,3]triazol-2-yl-phenyl)-methanone], in that order: 4440 nM, 9600 nM and 39 nM.
For the compound `COc1ccc(-n2nccn2)c(C(=O)N2CCOC[C@H]2Cc2cccc(-n3nccn3)c2)c1` [Example 32, (5-Methoxy-2-[1,2,3]triazol-2-yl-phenyl)-[(R)-3-(3-[1,2,3]triazol-2-yl-benzyl)-morpholin-4-yl]-methanone], the results for the IC50 at human orexin-2 receptor, at CYP3A4 and at human orexin-1 receptor were 489 nM, above 50000 nM and 7 nM, respectively.
Regarding `COc1ccc(C[C@@H]2COCCN2C(=O)c2ccc(F)cc2-n2nccn2)cc1-c1ncon1` [Example 61, (4-Fluoro-2-[1,2,3]triazol-2-yl-phenyl)-[(R)-3-(4-methoxy-3-[1,2,4]oxadiazol-3-yl-benzyl)-morpholin-4-yl]-methanone], the IC50 stood at 60 nM at human orexin-2 receptor (setting [1]), 42000 nM at CYP3A4 and 1 nM at human orexin-1 receptor (setting [2]).
As to `Cc1ccc(C(=O)N2CCOC[C@H]2Cc2cc(Cl)cc(-n3nccn3)c2)c(-n2nccn2)c1` [Example 105, [(R)-3-(3-Chloro-5-[1,2,3]triazol-2-yl-benzyl)-morpholin-4-yl]-(4-methyl-2-[1,2,3]triazol-2-yl-phenyl)-methanone], the IC50 was 101 nM on human orexin-2 receptor (setting [1]), 21000 nM on CYP3A4 and 2 nM on human orexin-1 receptor.
As for `O=C(c1cc(Cl)ccc1-n1nccn1)N1CCOC[C@H]1Cc1cccc(-c2ncon2)c1` [Example 84, (5-Chloro-2-[1,2,3]triazol-2-yl-phenyl)-[(R)-3-(3-[1,2,4]oxadiazol-3-yl-benzyl)-morpholin-4-yl]-methanone], the 50% inhibitory concentration (IC50) was 246 nM at human orexin-2 receptor (setting [1]), 21000 nM on CYP3A4 and 5 nM at human orexin-1 receptor (setting [2]).
